Assay results published in patent publication US9895346B2, “Applications of substituent benzyloxy group containing ether compounds for preparing antitumor drugs” (Sinochem Corporation, priority 2013, dated 2018).

Experiments:
[1] = system: lung cancer cell line H520; assay: In vitro cell inhibition assay (crystal violet), lung cancer H520; type: cell-based, human
Description: (§1) In vitro Cell inhibition assay is as follows:
(§2) The human cancer cell lines used for this assay were bladder cancer J82, T24, prostate cancer LNCap, PC-3, lung cancer A549, H157, H460, H520, colon cancer HCT8, HCT116, RkO, and leukemia HL-60, etc.
(§3) In vitro cell culture technology was selected for the determination of inhibition rate bladder cancer cell lines J82 and T24, prostate cancer cell lines LNCap and PC-3, lung cancer cell lines A549, H157, H460 and H520. 1000 to 3000 cells were inoculated to 24-well plate, followed by addition of 1 mL culture medium well known to researchers in this field to each well, the cells were cultured in 5% incubator for 24 hours at 37° C., then the different concentration compounds and controls were added to each well. It should be noted that the added volume is not more than 0.5% of total volume. After completion of addition, the cells continued being cultured in incubator for one week, the culture medium was removed and washed by cold PBS of 1 mL once, and then fixed for 10 minutes at room temperature with 1% formalin, followed by wash with PBS of 1 mL. After fixation, stain was carried out with 0.1% crystal violet for 30 minutes. 0.1% crystal violet was recycled. The stained cells were washed gently with deionized water, dried at room temperature and kepted. The inhibition rate was calculated according to the foiling equation. The controls are Selumetinib (AZD6244), Gefitinib, Cisplatin. Inhibition rate=number of left cells each treatment/number of left cells of untreated control×100%

[2] = system: lung cancer cell line H460; assay: In vitro cell inhibition assay (crystal violet), lung cancer H460; type: cell-based, human
Description: as §1, §2, §3

[3] = system: lung cancer cell line A549; assay: In vitro cell inhibition assay (crystal violet), lung cancer A549; type: cell-based, human
Description: as §1, §2, §3

[4] = system: human leukemia HL-60 cells; assay: Proliferation inhibition of human leukemia HL-60 cells, MTT method; type: cell-based; conditions: 48 h incubation, OPTI-MEM medium
Protocol: The inhibition rate of human leukemia HL-60 cells was evaluated by regular MTT method. The human leukemia HL-60 cells were picked up from cell incubator, after washed for twice using PBS, cells were digested by 0.25% trypsin, and then add medium to terminate the digestion. After cells were collected using centrifuge and re-suspended, counting cells under inverted microscope and adding medium to make a density which was 5×10^4 cells/mL. After 100 μL aliquots were added to each well of 96-well microtiter plates, cells were cultured in 5% incubator for overnight at 37° C., then the different concentration compounds were added to each well. After incubation for 48 h, MTT solution was added to each well and plates were then incubated for 4 h. The MTT tetrazolium was reduced to formazan by living cells. Then the formazan crystals were dissolved though adding DMSO to each well. The absorbance was read at 570 nm with a microplate reader.

Row | Compound | Inhibition rate on human cancer cells ([1]; H520, 2.5 μM) [%] | Inhibition rate on human cancer cells ([1]; H520, 5.0 μM) [%] | Inhibition rate on human cancer cells ([2]; H460, 2.5 μM) [%] | Inhibition rate on human cancer cells ([2]; H460, 5.0 μM) [%] | Inhibition rate on human cancer cells ([3]; A549, 2.5 μM) [%] | Inhibition rate on human cancer cells ([3]; A549, 5.0 μM) [%] | Proliferation inhibitory effect on human leukemia HL-60 cell (%) ([4]; concentration 1 μM) | Proliferation inhibitory effect on human leukemia HL-60 cell (%) ([4]; concentration 10 μM) | Proliferation inhibitory effect on human leukemia HL-60 cell (%) ([4]; concentration 100 μM) | further results
1 | COC=C(C(=O)OC)c1ccccc1COc1ccc2c(C)c(Cl)c(=O)oc2c1 [28-12] | 100 | 100 | 90 | 95 | 95 | 100 |  |  |  | Inhibition rate on human cancer cells ([1]; H520, 1.0 μM): 50%; Inhibition rate on human cancer cells ([2]; H460, 1.0 μM): 75%; Inhibition rate on human cancer cells ([3]; A549, 1.0 μM): 80%
2 | COC=C(C(=O)OC)c1ccccc1COc1ccc2c(-c3ccc(Cl)cc3)cc(=O)oc2c1 [28-29] | 70 | 100 | 90 | 95 |  | 95 |  |  |  | Inhibition rate on human cancer cells ([1]; H520, 0.25 μM): 30%; Inhibition rate on human cancer cells ([1]; H520, 0.5 μM): 40%; Inhibition rate on human cancer cells ([1]; H520, 1.0 μM): 70%; Inhibition rate on human cancer cells ([2]; H460, 1.0 μM): 70%
3 | CCc1cc(=O)oc2cc(OCc3ccccc3C(=COC)C(=O)OC)ccc12 [28-33] | 90 | 100 | 95 | 95 | 95 | 99 |  |  |  | Inhibition rate on human cancer cells ([2]; H460, 1.0 μM): 90%; Inhibition rate on human cancer cells ([3]; A549, 1.0 μM): 80%
4 | CCCc1cc(=O)oc2cc(OCc3ccccc3C(=COC)C(=O)OC)ccc12 [28-34] | 100 | 100 | 95 | 95 | 95 | 100 |  |  |  | Inhibition rate on human cancer cells ([1]; H520, 0.5 μM): 70%; Inhibition rate on human cancer cells ([1]; H520, 1.0 μM): 99%; Inhibition rate on human cancer cells ([2]; H460, 1.0 μM): 93%; Inhibition rate on human cancer cells ([3]; A549, 1.0 μM): 90%
5 | COC=C(C(=O)OC)c1ccccc1COc1ccc2c(-c3ccc(C(F)(F)F)cc3)cc(=O)oc2c1 [28-41] |  | 70 | 75 | 85 |  |  |  |  |  | 
6 | COC=C(C(=O)OC)c1ccccc1COc1ccc2c(-c3ccccc3)cc(=O)oc2c1 [28-52] | 100 | 100 | 100 | 100 | 100 | 100 |  |  |  | Inhibition rate on human cancer cells ([1]; H520, 0.25 μM): 70%; Inhibition rate on human cancer cells ([1]; H520, 0.5 μM): 100%; Inhibition rate on human cancer cells ([1]; H520, 1.0 μM): 100%; Inhibition rate on human cancer cells ([2]; H460, 0.25 μM): 60%; Inhibition rate on human cancer cells ([2]; H460, 0.5 μM): 90%; Inhibition rate on human cancer cells ([2]; H460, 1.0 μM): 100%; Inhibition rate on human cancer cells ([3]; A549, 0.5 μM): 90%; Inhibition rate on human cancer cells ([3]; A549, 1.0 μM): 95%
7 | CCCCCCc1c(C)c2ccc(OCc3ccccc3C(=COC)C(=O)OC)cc2oc1=O [28-75] | 80 | 100 | 90 | 95 |  | 90 |  |  |  | Inhibition rate on human cancer cells ([2]; H460, 1.0 μM): 70%
8 | COC=C(C(=O)OC)c1ccccc1COc1ccc2c3c(c(=O)oc2c1C)CCC3 [28-126] | 90 | 95 | 90 | 95 | 85 | 90 |  |  |  | Inhibition rate on human cancer cells ([1]; H520, 1.0 μM): 70%
9 | COC=C(C(=O)OC)c1ccccc1COc1ccc2c(-c3ccccc3Cl)cc(=O)oc2c1 [28-132] |  |  |  |  |  | 90 |  |  |  | 
10 | COC=C(C(=O)OC)c1ccccc1COc1ccc2c(-c3cccc(Cl)c3)cc(=O)oc2c1 [28-133] |  |  |  |  | 100 | 100 |  |  |  | 
11 | COC=C(C(=O)OC)c1ccccc1COc1ccc2c(-c3ccc(Br)cc3)cc(=O)oc2c1 [28-134] |  |  |  |  | 100 | 100 |  |  |  | 
12 | COC=C(C(=O)OC)c1ccccc1COc1ccc2c(-c3ccc(C#N)cc3)cc(=O)oc2c1 [28-135] |  |  |  |  |  | 80 |  |  |  | 
13 | COC=C(C(=O)OC)c1ccccc1COc1ccc2c(-c3ccc(C)cc3)cc(=O)oc2c1 [28-136] |  |  |  |  | 100 | 100 |  |  |  | 
14 | COC=C(C(=O)OC)c1ccccc1COc1ccc2c(-c3ccc(OC)cc3)cc(=O)oc2c1 [28-137] |  |  |  |  | 100 | 100 |  |  |  | 
15 | COC=C(C(=O)OC)c1ccccc1COc1ccc2c(C)cc(=O)oc2c1 [Compound 28-2] |  |  |  | 95 |  |  | 6.0 | 49.2 | 71.3 | 
16 | COC=C(C(=O)OC)c1ccccc1COc1ccc2c(C)cc(=O)oc2c1C [Compound 28-3] |  |  |  |  |  |  | 4.1 | 33.4 | 58.8 | 
17 | COC=C(C(=O)OC)c1ccccc1COc1ccc2c(C)c(C)c(=O)oc2c1C [Compound 28-6] |  |  |  |  |  |  | 48.2 | 53.0 | 52.0 | 
18 | CCc1c(C)c2ccc(OCc3ccccc3C(=COC)C(=O)OC)cc2oc1=O [Compound 28-18] | 100 | 100 | 95 | 95 | 100 | 100 |  |  |  | Inhibition rate on human cancer cells ([1]; H520, 0.25 μM): 50%; Inhibition rate on human cancer cells ([1]; H520, 0.5 μM): 95%; Inhibition rate on human cancer cells ([1]; H520, 1.0 μM): 100%; Inhibition rate on human cancer cells ([2]; H460, 0.25 μM): 80%; Inhibition rate on human cancer cells ([2]; H460, 0.5 μM): 90%; Inhibition rate on human cancer cells ([2]; H460, 1.0 μM): 95%; Inhibition rate on human cancer cells ([3]; A549, 0.5 μM): 90%; Inhibition rate on human cancer cells ([3]; A549, 1.0 μM): 100%
19 | COC=C(C(=O)OC)c1ccccc1COc1ccc2cc(C#N)c(=O)oc2c1 [Compound 28-24] |  |  |  |  |  |  | 10.8 | 44.5 | 86.7 | 
20 | COC=C(C(=O)OC)c1ccccc1COc1ccc2c(-c3ccc(F)cc3)cc(=O)oc2c1 [Compound 28-38] |  |  |  |  |  |  | 77.5 | 72.9 | 63.7 | 
21 | COC=C(C(=O)OC)c1ccccc1COc1ccc2c(C)c(Cc3ccccc3)c(=O)oc2c1 [Compound 28-68] |  |  |  |  |  |  | 54.6 | 62.0 | 84.4 | 
22 | COC=C(C(=O)OC)c1ccccc1COc1ccc2c(C)c(C(C)C)c(=O)oc2c1 [Compound 28-71] |  |  |  |  |  |  | 40.9 | 48.2 | 50.3 | 
23 | CCCc1c(CCC)c2ccc(OCc3ccccc3C(=COC)C(=O)OC)cc2oc1=O [Compound 28-79] |  |  |  |  |  |  | 28.8 | 53.1 | 71.2 | 
24 | COC=C(C(=O)OC)c1ccccc1COc1ccc2c(-c3ccc(Cl)nc3)cc(=O)oc2c1 [Compound 28-124] |  | 70 |  | 75 |  |  | 0.5 | 29.3 | 27.8 | 
25 | COC=C(C(=O)OC)c1ccccc1COc1ccc2c3c(c(=O)oc2c1)CCC3 [Compound 28-125] |  |  |  |  |  |  | 47.0 | 73.8 | 85.0 | 
